From ChEMBL document CHEMBL1201862, “PubChem BioAssay data set” (2004)
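Grown in 96-well plates, cells were treated for 48 hours with each compound at five concentrations. Insufficient inhibition: endpoint recorded as highest concentration tested. GI50 = concentration required for 50% inhibition of growth.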 The source made the active and inactive calls. Rule as the data show it: active = GI50 up to about 1.1 µM and inactive = higher.

What was measured:
Test in all cases: NCI anticancer screen, dose series, 48 h
BT-549 = test system: BT-549
CAKI-1 = test system: CAKI-1
COLO 205 = test system: COLO 205
DU-145 = test system: DU-145
EKVX = test system: EKVX
HCT-116 = test system: HCT-116
HCT-15 = test system: HCT-15
M14 = test system: M14
MCF7 = test system: MCF7
MDA-MB-231 = test system: MDA-MB-231
RPMI-8226 = test system: RPMI-8226
SF-539 = test system: SF-539
SK-MEL-28 = test system: SK-MEL-28
SK-OV-3 = test system: SK-OV-3
SN12C = test system: SN12C
SNB-75 = test system: SNB-75
TK-10 = test system: TK-10
U-251 = test system: U-251
MOLT-4 = test system: MOLT-4

| SMILES | GI50 (BT-549) | GI50 (CAKI-1) | GI50 (COLO 205) | GI50 (DU-145) | GI50 (EKVX) | GI50 (HCT-116) | GI50 (HCT-15) [µM] | GI50 (M14) | GI50 (MCF7) | GI50 (MDA-MB-231) | GI50 (RPMI-8226) | GI50 (SF-539) | GI50 (SK-MEL-28) | GI50 (SK-OV-3) | GI50 (SN12C) | GI50 (SNB-75) | GI50 (TK-10) | GI50 (U-251) | GI50 (MOLT-4) |
| --- | --- | --- | --- | --- | --- | --- | --- | --- | --- | --- | --- | --- | --- | --- | --- | --- | --- | --- | --- |
| CN(C)S(=O)(=O)Nc1ccccn1 | > 100 µM (inactive) | > 100 µM (inactive) | > 100 µM (inactive) | > 100 µM (inactive) | > 100 µM (inactive) | > 100 µM (inactive) | > 100 | > 100 µM (inactive) | > 100 µM (inactive) | > 100 µM (inactive) | > 100 µM (inactive) | > 100 µM (inactive) | > 100 µM (inactive) | > 100 µM (inactive) | > 100 µM (inactive) | > 100 µM (inactive) | > 100 µM (inactive) | > 100 µM (inactive) |  |
| O=S(=O)(/C=C/C=C/S(=O)(=O)c1ccccc1)c1ccccc1 | 1.15 µM (inactive) | 1.24 µM (inactive) | 1.44 µM (inactive) | 14.6 µM (inactive) | 1.72 µM (inactive) | 1.27 µM (inactive) | 1.2 | 0.507 µM (active) | 0.845 µM (active) | 1.56 µM (inactive) | 0.419 µM (active) | 3.88 µM (inactive) | 1.32 µM (inactive) | 8 µM (inactive) | 2 µM (inactive) | 6.61 µM (inactive) | 1.57 µM (inactive) | 4.12 µM (inactive) | 0.315 µM (active) |
| CC(C)(C)OC/C=C1\C(=O)O[C@H]2C[C@@H](O[Si](C)(C)C(C)(C)C)C[C@@H]12 | > 100 µM (inactive) | > 100 µM (inactive) | > 100 µM (inactive) | > 100 µM (inactive) | > 100 µM (inactive) | 26.4 µM (inactive) | > 100 | 61.8 µM (inactive) | 35.4 µM (inactive) | > 100 µM (inactive) | 46 µM (inactive) |  | > 100 µM (inactive) | > 100 µM (inactive) | > 100 µM (inactive) | 63.7 µM (inactive) | > 100 µM (inactive) | 83 µM (inactive) | 25.1 µM (inactive) |
| O=[N+]([O-])c1ccc(N2N=C(c3ccc4ccccc4c3O)CC2c2ccc(Cl)cc2)c([N+](=O)[O-])c1 (centres undefined) | > 100 µM (inactive) | > 100 µM (inactive) | 29.6 µM (inactive) | 48.8 µM (inactive) |  | 28 µM (inactive) | 30.3 | 50.4 µM (inactive) | 20.3 µM (inactive) | 20.5 µM (inactive) | 12.8 µM (inactive) | 32.3 µM (inactive) | 41.8 µM (inactive) | 80.2 µM (inactive) | 33.2 µM (inactive) | 73.5 µM (inactive) | 53.1 µM (inactive) | 25.9 µM (inactive) | 17 µM (inactive) |
| N#Cc1c(N)c2c(c(-c3ccccc3)c1-c1ccccc1)C(=O)N(NC(=O)c1ccccc1)C2=O | > 100 µM (inactive) | > 100 µM (inactive) | > 100 µM (inactive) | > 100 µM (inactive) | > 100 µM (inactive) | 19.6 µM (inactive) | > 100 | > 100 µM (inactive) | 61.2 µM (inactive) | > 100 µM (inactive) | 31.2 µM (inactive) | 64.4 µM (inactive) | > 100 µM (inactive) |  | > 100 µM (inactive) | > 100 µM (inactive) | > 100 µM (inactive) | > 100 µM (inactive) | 40.6 µM (inactive) |
| COC(=O)/C=C/c1ccc2c(c1)CC1(C2)Cc2cc3c(cc2C1=O)CCC3 (centres undefined) | > 100 µM (inactive) | 36.2 µM (inactive) | > 100 µM (inactive) | > 100 µM (inactive) | 55.6 µM (inactive) | 15.7 µM (inactive) | > 100 | 47 µM (inactive) | > 100 µM (inactive) | 39 µM (inactive) | 15 µM (inactive) | 31 µM (inactive) | > 100 µM (inactive) |  | > 100 µM (inactive) | 24.9 µM (inactive) | 57.3 µM (inactive) | 26.5 µM (inactive) | > 100 µM (inactive) |
| NC(=O)c1nnc2cc(F)c(F)cc2c1N | 15.7 µM (inactive) | 61.2 µM (inactive) | > 100 µM (inactive) | 74.3 µM (inactive) | 44.7 µM (inactive) | 72.1 µM (inactive) | > 100 | 67.5 µM (inactive) | 37.9 µM (inactive) | 44.1 µM (inactive) | > 100 µM (inactive) | 36.4 µM (inactive) |  | 25.5 µM (inactive) | 84.9 µM (inactive) | 16.7 µM (inactive) | 35.2 µM (inactive) | 22.3 µM (inactive) | > 100 µM (inactive) |
| C[C@H](C(O)CC(=O)C(C)(C)O)[C@H]1CC[C@@]2(C)[C@@H]3CC[C@H]4C(C)(C)[C@@H](OC5OC(COC6OC(CO)C(O)C(O)C6O)C(O)C(O)C5O)CC[C@]4(C)C3=CC[C@]12C (some centres undefined) | > 100 µM (inactive) | > 100 µM (inactive) | > 100 µM (inactive) | > 100 µM (inactive) | > 100 µM (inactive) | > 100 µM (inactive) | > 100 | > 100 µM (inactive) | > 100 µM (inactive) | > 100 µM (inactive) | > 100 µM (inactive) | > 100 µM (inactive) | > 100 µM (inactive) | > 100 µM (inactive) | > 100 µM (inactive) | > 100 µM (inactive) | > 100 µM (inactive) | > 100 µM (inactive) |  |
| Cc1ccc(S(=O)(=O)N2CCN3C(=O)c4ccccc4C32c2ccc(F)cc2)cc1 (centres undefined) | > 100 µM (inactive) | 57.3 µM (inactive) | 34.9 µM (inactive) | 78.7 µM (inactive) | 67.8 µM (inactive) | 42.1 µM (inactive) | 80.9 | > 100 µM (inactive) | 43.4 µM (inactive) | > 100 µM (inactive) | 23.8 µM (inactive) |  | 71 µM (inactive) | > 100 µM (inactive) | 32.7 µM (inactive) | 72.1 µM (inactive) | > 100 µM (inactive) | > 100 µM (inactive) | 23.8 µM (inactive) |
| CC(=O)Nc1ccc(N2C(=O)/C(=C\c3cccc(Oc4ccccc4)c3)S(=O)(=O)C2c2ccccc2)cc1 (centres undefined) | > 100 µM (inactive) | > 100 µM (inactive) | > 100 µM (inactive) | 39.1 µM (inactive) | > 100 µM (inactive) | 37.5 µM (inactive) | > 100 | 67 µM (inactive) | 32.2 µM (inactive) | > 100 µM (inactive) | 20.4 µM (inactive) | 24.3 µM (inactive) | 91 µM (inactive) | > 100 µM (inactive) | 46.5 µM (inactive) | 81.3 µM (inactive) | > 100 µM (inactive) | 39.3 µM (inactive) | 28.2 µM (inactive) |
| N#C/C=C\c1ccc(-c2cc(C(F)(F)F)cc(C(F)(F)F)c2)o1 | 36.7 µM (inactive) | 35.3 µM (inactive) | > 100 µM (inactive) | > 100 µM (inactive) | 34.1 µM (inactive) | 35.4 µM (inactive) |  | 56.4 µM (inactive) | 71.8 µM (inactive) | 36.8 µM (inactive) | > 100 µM (inactive) | 10 µM (inactive) | 45.3 µM (inactive) | 30.3 µM (inactive) | 35.6 µM (inactive) | 18.7 µM (inactive) |  | 14.4 µM (inactive) | 57.4 µM (inactive) |
| Clc1ccc(-c2nc3cc(Cl)ccc3[nH]2)cc1 | 32.2 µM (inactive) | > 100 µM (inactive) | 19.6 µM (inactive) | 31.8 µM (inactive) | 34.9 µM (inactive) | 22.9 µM (inactive) | 30.3 | 36.4 µM (inactive) | 35.6 µM (inactive) | > 100 µM (inactive) | 26.8 µM (inactive) | 22.6 µM (inactive) | 47.9 µM (inactive) | 39.3 µM (inactive) | 26.2 µM (inactive) | 40.1 µM (inactive) | 30.8 µM (inactive) | 31.5 µM (inactive) | 34.1 µM (inactive) |
| CCOC(=O)c1nc2ccccc2nc1NCc1ccc(OC)c(OC)c1 | > 100 µM (inactive) | > 100 µM (inactive) | > 100 µM (inactive) | > 100 µM (inactive) | > 100 µM (inactive) | > 100 µM (inactive) | > 100 |  | > 100 µM (inactive) | > 100 µM (inactive) | > 100 µM (inactive) | > 100 µM (inactive) | > 100 µM (inactive) | > 100 µM (inactive) | > 100 µM (inactive) | > 100 µM (inactive) | 82.4 µM (inactive) | > 100 µM (inactive) | > 100 µM (inactive) |
| CCO[C@@]12CCC3CC4CC[C@@](OCC)(O1)C4C32 (some centres undefined) | > 100 µM (inactive) | > 100 µM (inactive) | > 100 µM (inactive) | > 100 µM (inactive) | > 100 µM (inactive) | > 100 µM (inactive) | > 100 | > 100 µM (inactive) | > 100 µM (inactive) | > 100 µM (inactive) | > 100 µM (inactive) | > 100 µM (inactive) | > 100 µM (inactive) | > 100 µM (inactive) | > 100 µM (inactive) | > 100 µM (inactive) | > 100 µM (inactive) | > 100 µM (inactive) | > 100 µM (inactive) |
| COc1cc2c(/C=C3/C(=O)N(C)c4ccccc43)c(Cl)[nH]c2cc1C | 0.321 µM (active) | 0.509 µM (active) | 0.216 µM (active) | 0.246 µM (active) | 0.641 µM (active) | 0.233 µM (active) | 0.13 | 0.195 µM (active) | 0.0895 µM (active) | 0.36 µM (active) | 0.249 µM (active) | 0.0244 µM (active) | 8.38 µM (inactive) | 0.184 µM (active) | 0.471 µM (active) | 0.321 µM (active) | 0.284 µM (active) | 0.117 µM (active) | 0.282 µM (active) |
